In general, LD50 refers to the dose expected to kill half of the subjects tested. Low readings indicate a more toxic substance, high ones a less toxic substance.

Data set [1] relates to Leukemia L1210. The data set is described as follows: Activity against Leukemia L1210, intraperitoneal, increase in life span of mice. Type of data set: in vivo, female mice (BDF1 family). Conditions: for ED (maximum ILS) / ED30: Mus musculus, L1210, ip, ip once a day for 5 successive days; for ED (maximum ILS): daily dosage giving maximum increase of life span, read-out: O.D. (optimum dosage); for ED30: daily dosage increasing average survival days by 30%, read-out: ILS30; for Survivors after 60 days / Max. ILS % / Therapeutic ratio TR: ip; for Survivors after 60 days: 6-membered group; for Max. ILS %: 60-day observation, versus control; for Therapeutic ratio TR: O.D./ILS30. The method, boiled down:
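L1210 cells (1×10^5) into abdominal cavity of female BDF1 mice, 20–23 g, n=6/group. Dosing 24 h post-implant, ip or po, qd ×5. 60-day observation; ILS% = mean survival vs untreated control; T.R. = O.D./ILS 30.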

The nature of data set [2]: Acute toxicity (LD50, Behrens-Karber method). Type of data set: in vivo, ICR mice. Conditions: mouse, in vivo, ip, mortality during 30 days. How it is done:
Test compounds, dissolved or suspended in 0.5% aqueous CMC, were each intraperitoneally administered to ICR mice in a dose of 0.1 ml per 10 g body weight. LD50 (mg/kg) value of each test compound was calculated from the mortality of mice during 30 days by the Behrens-Karber method.

Molecules are shown by their SMILES. Bounds are passed on as bounds.

Take `C=C(C)CN(C(=O)N(CCCl)N=O)C1C(CO)OC(OC2CCCCC2)C(O)C1O` [Compound 97, 3-(2-methyl-2-propenyl)-3-(cyclohexyl α-D-glucopyranose-4-yl)-1-(2-chloroethyl)-1-nitrosourea]: in data set [1], the ED (maximum ILS) is 120 mg/kg, the ED30 is 3.72 mg/kg, the “Survivors after 60 days” value is 3/6 and the “Max. ILS %” value is over 360%. Also, in data set [1], the “Therapeutic ratio TR” value is listed as 32.3. Besides, in data set [2], the LD50 at 720 h worked out at 390 mg/kg.

For the compound `CCCN(C[C@H]1O[C@H](OC2CCCCC2)[C@H](O)[C@@H](O)[C@H]1O)C(=O)N(CCCl)N=O` [Compound 98, 3-n-propyl-3-(cyclohexyl α-D-galactopyranose-6-yl)-1-(2-chloroethyl)-1-nitrosourea], in data set [1], the ED (maximum ILS) amounted to 200 mg/kg, the ED30 amounted to 6.45 mg/kg, the “Survivors after 60 days” value is 3/6 and the “Max. ILS %” value is on record as over 350%. In data set [1], the “Therapeutic ratio TR” value turned out to be 31.0. The LD50 at 720 h in data set [2] is 600 mg/kg.

As to `CCCCN(C[C@H]1O[C@H](OC2CCCCC2)[C@H](O)[C@@H](O)[C@H]1O)C(=O)N(CCCl)N=O` [Compound 99, 3-n-butyl-3-(cyclohexyl α-D-galactopyranose-6-yl)-1-(2-chloroethyl)-1-nitrosourea], in data set [1], the ED (maximum ILS) came to 200 mg/kg, the ED30 is 6.22 mg/kg, the “Survivors after 60 days” value is recorded as 3/6 and the “Max. ILS %” value was over 330%. Further, the “Therapeutic ratio TR” value in data set [1] is reported as 32.2. The 50% lethal dose (LD50) at 720 h in data set [2] amounted to 630 mg/kg.

Regarding `CCCCCCN(C[C@H]1O[C@H](OC2CCCCC2)[C@H](O)[C@@H](O)[C@H]1O)C(=O)N(CCCl)N=O` [Compound 100, 3-n-hexyl-3-(cyclohexyl α-D-galactopyranose-6-yl)-1-(2-chloroethyl)-1-nitrosourea], in data set [1], the ED (maximum ILS) was 200 mg/kg, the ED30 was 6.41 mg/kg, the “Survivors after 60 days” value is listed as 3/6 and the “Max. ILS %” value is reported as over 330%. The “Therapeutic ratio TR” value in data set [1] turned out to be 31.2. In data set [2], the LD50 at 720 h was 580 mg/kg.

With `CCOCCN(C[C@H]1O[C@H](OC2CCCCC2)[C@H](O)[C@@H](O)[C@H]1O)C(=O)N(CCCl)N=O` [Compound 102, 3-(2-ethoxyethyl)-3-(cyclohexyl α-D-galactopyranose-6-yl)-1-(2-chloroethyl)-1-nitrosourea], in data set [1], the ED (maximum ILS) is 200 mg/kg, the ED30 worked out at 3.81 mg/kg, the “Survivors after 60 days” value was 5/6 and the “Max. ILS %” value is listed as over 625%. The “Therapeutic ratio TR” value in data set [1] turned out to be 52.5. The compound further showed an LD50 at 720 h in data set [2] of 680 mg/kg.

In the case of `COC(C)CN(C[C@H]1O[C@H](OC2CCCCC2)[C@H](O)[C@@H](O)[C@H]1O)C(=O)N(CCCl)N=O` (stereo partly drawn) [Compound 103, 3-(2-methoxy-n-propyl)-3-(cyclohexyl α-D-galactopyranose-6-yl)-1-(2-chloroethyl)-1-nitrosourea], in data set [1], the ED (maximum ILS) was 200 mg/kg, the ED30 amounted to 3.63 mg/kg, the “Survivors after 60 days” value is listed as 5/6 and the “Max. ILS %” value was over 625%. For the same compound, in data set [1], the “Therapeutic ratio TR” value is 55.1. In data set [2], the LD50 at 720 h was 685 mg/kg.

On to `COc1ccc(CN(C[C@H]2O[C@H](OC3CCCCC3)[C@H](O)[C@@H](O)[C@H]2O)C(=O)N(CCCl)N=O)cc1` [Compound 104, 3-(p-methoxybenzyl)-3-(cyclohexyl α-D-galactopyranose-6-yl)-1-(2-chloroethyl)-1-nitrosourea], for which, in data set [1], the ED (maximum ILS) stood at 200 mg/kg, the ED30 was 6.61 mg/kg, the “Survivors after 60 days” value is listed as 3/6 and the “Max. ILS %” value was over 325%. In addition, the “Therapeutic ratio TR” value in data set [1] came to 30.3. The compound further gave an LD50 at 720 h in data set [2] of 630 mg/kg.

In the case of `CCCCO[C@H]1O[C@H](CN(CCC)C(=O)N(CCCl)N=O)[C@H](O)[C@H](O)[C@H]1O` [Compound 106, 3-n-propyl-3-(n-butyl α-D-galactopyranose-6-yl)-1-(2-chloroethyl)-1-nitrosourea], in data set [1], the ED (maximum ILS) came out at 160 mg/kg, the ED30 came out at 3.74 mg/kg, the “Survivors after 60 days” value is 3/6 and the “Max. ILS %” value was over 340%. Besides, in data set [1], the “Therapeutic ratio TR” value was determined as 42.8. In addition, the LD50 at 720 h in data set [2] amounted to 430 mg/kg.

With `CC(C)CO[C@H]1O[C@H](CN(CC(C)C)C(=O)N(CCCl)N=O)[C@H](O)[C@H](O)[C@H]1O` [Compound 107, 3-isobutyl-3-(isobutyl α-D-galactopyranose-6-yl)-1-(2-chloroethyl)-1-nitrosourea], in data set [1], the ED (maximum ILS) was 200 mg/kg, the ED30 was 5.87 mg/kg, the “Survivors after 60 days” value is given as 3/6 and the “Max. ILS %” value was over 360%. The “Therapeutic ratio TR” value in data set [1] amounted to 34.1. In data set [2], this compound returned an LD50 at 720 h of 650 mg/kg.

As for `Cc1ccc(CN(C[C@H]2O[C@H](OCC(C)C)[C@H](O)[C@@H](O)[C@H]2O)C(=O)N(CCCl)N=O)cc1` [Compound 111, 3-(p-methylbenzyl)-3-(isobutyl α-D-galactopyranose-6-yl)-1-(2-chloroethyl)-1-nitrosourea], in data set [1], the ED (maximum ILS) came to 200 mg/kg, the ED30 came out at 7.04 mg/kg, the “Survivors after 60 days” value is listed as 3/6 and the “Max. ILS %” value is listed as over 345%. In addition, the “Therapeutic ratio TR” value in data set [1] is on record as 28.4. The same compound had an LD50 at 720 h in data set [2] of 600 mg/kg.

In the case of `CC(C)CO[C@H]1O[C@H](CN(Cc2cccs2)C(=O)N(CCCl)N=O)[C@H](O)[C@H](O)[C@H]1O` [Compound 112, 3-(thiophene-2-yl-methyl)-3-(isobutyl α-D-galactopyranose-6-yl)-1-(2-chloroethyl)-1-nitrosourea], in data set [1], the ED (maximum ILS) was determined as 180 mg/kg, the ED30 is 4.17 mg/kg, the “Survivors after 60 days” value is given as 3/6 and the “Max. ILS %” value is over 350%. Also, in data set [1], the “Therapeutic ratio TR” value was 43.2. Moreover, in data set [2], the LD50 at 720 h is 480 mg/kg.

`COC(C)CO[C@H]1O[C@H](CN(CC2CC2)C(=O)N(CCCl)N=O)[C@H](O)[C@H](O)[C@H]1O` (stereo partly drawn) [Compound 116, 3-cyclopropylmethyl-3-(2-methoxy-n-propyl α-D-galactopyranose-6-yl)-1-(2-chloroethyl)-1-nitrosourea]: in data set [1], the ED (maximum ILS) was 150 mg/kg, the ED30 worked out at 2.51 mg/kg, the “Survivors after 60 days” value is recorded as 6/6 and the “Max. ILS %” value is listed as over 700%. In addition, in data set [1], the “Therapeutic ratio TR” value turned out to be 59.8. The LD50 at 720 h in data set [2] came out at 450 mg/kg.

Turning to `CCCCO[C@H]1O[C@H](CO)[C@H](O)[C@H](O)[C@H]1N(C)C(=O)N(CCCl)N=O` [Compound 118, 3-methyl-3-(n-butyl α-D-galactopyranose-2-yl)-1-(2-chloroethyl)-1-nitrosourea], in data set [1], the ED (maximum ILS) amounted to 130 mg/kg, the ED30 worked out at 4.45 mg/kg, the “Survivors after 60 days” value is 3/6 and the “Max. ILS %” value is reported as over 350%. In addition, in data set [1], the “Therapeutic ratio TR” value was 29.2. This compound also returned an LD50 at 720 h in data set [2] of 400 mg/kg.

`CCCCO[C@H]1O[C@H](CO)[C@H](O)[C@H](O)[C@H]1N(CCC)C(=O)N(CCCl)N=O` [Compound 119, 3-n-propyl-3-(n-butyl α-D-galactopyranose-2-yl)-1-(2-chloroethyl)-1-nitrosourea]: in data set [1], the ED (maximum ILS) worked out at 200 mg/kg, the ED30 amounted to 5.95 mg/kg, the “Survivors after 60 days” value is reported as 3/6 and the “Max. ILS %” value is given as over 360%. Further, the “Therapeutic ratio TR” value in data set [1] is 33.6. In data set [2], this compound came in with a 50% lethal dose (LD50) at 720 h of 600 mg/kg.

In the case of `COc1ccc(CN(C(=O)N(CCCl)N=O)[C@H]2[C@@H](OCC(C)C)O[C@H](CO)[C@H](O)[C@@H]2O)cc1` [Compound 120, 3-(p-methoxybenzyl)-3-(isobutyl α-D-galactopyranose-2-yl)-1-(2-chloroethyl)-1-nitrosourea], in data set [1], the ED (maximum ILS) stood at 170 mg/kg, the ED30 amounted to 6.59 mg/kg, the “Survivors after 60 days” value is 3/6 and the “Max. ILS %” value is over 340%. In addition, the “Therapeutic ratio TR” value in data set [1] came out at 25.8. The LD50 at 720 h in data set [2] was 550 mg/kg.

For the compound `CCN(C(=O)N(CCCl)N=O)[C@H]1[C@@H](OCC(C)C)O[C@H](CO)[C@H](O)[C@@H]1O` [Compound 121, 3-ethyl-3-(isobutyl α-D-galactopyranose-2-yl)-1-(2-chloroethyl)-1-nitrosourea], in data set [1], the ED (maximum ILS) turned out to be 160 mg/kg, the ED30 amounted to 5.99 mg/kg, the “Survivors after 60 days” value was 3/6 and the “Max. ILS %” value was over 350%. The “Therapeutic ratio TR” value in data set [1] was 26.7. In data set [2], this compound returned an LD50 at 720 h of 480 mg/kg.

Regarding `CC(C)CO[C@H]1O[C@H](CO)[C@H](O)[C@H](O)[C@H]1N(CC(C)C)C(=O)N(CCCl)N=O` [Compound 122, 3-isobutyl-3-(isobutyl α-D-galactopyranose-2-yl)-1-(2-chloroethyl)-1-nitrosourea], in data set [1], the ED (maximum ILS) was 200 mg/kg, the ED30 stood at 6.85 mg/kg, the “Survivors after 60 days” value is recorded as 3/6 and the “Max. ILS %” value is over 355%. In data set [1], the “Therapeutic ratio TR” value came out at 29.2. For the same compound, the 50% lethal dose (LD50) at 720 h in data set [2] was determined as 715 mg/kg.

In the case of `CC(C)CO[C@H]1O[C@H](CO)[C@H](O)[C@H](N(CC(C)C)C(=O)N(CCCl)N=O)[C@H]1O` [Compound 125, 3-isobutyl-3-(isobutyl α-D-galactopyranose-3-yl)-1-(2-chloroethyl)-1-nitrosourea], in data set [1], the ED (maximum ILS) is 250 mg/kg, the ED30 was determined as 7.67 mg/kg, the “Survivors after 60 days” value is listed as 3/6 and the “Max. ILS %” value is listed as over 350%. Besides, the “Therapeutic ratio TR” value in data set [1] is 32.6. The LD50 at 720 h in data set [2] turned out to be 780 mg/kg.
